Drawing on PubChem BioAssay AID1117319 (Southern Research Institute, 2015), this text covers IC50 for 39 compounds.

Inconclusive results are not listed. Some results are limits rather than exact numbers.

In this test the target is Virion infectivity factor (Human immunodeficiency virus type 1 group M subtype B (isolate BH10)) + Virion infectivity factor (Human immunodeficiency virus type 1 group M subtype B (isolate BRU/LAI)) + Virion infectivity factor (Human immunodeficiency virus type 1 group M subtype B (isolate PCV12)) + Virion infectivity factor (Human immunodeficiency virus type 1 group M subtype B (isolate HXB2)) + DNA dC->dU-editing enzyme APOBEC-3G (Homo sapiens) (UniProt P69720+P69721+P69722+P69723+Q9HC16). In words: inhibitors of Vif binding to APOBEC3G peptide, primary screen, biochemical, TR-FRET, GST-Vif 1-94, biotin-A3G peptide, dose response retest (AID 1117319).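 Further: Vif residues 1-94 fused to GST binding biotinylated APOBEC3G peptide 110-148.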
As to `CC1(C)Cc2nc3sc4c(SCC(=O)NCc5ccco5)ncnc4c3cc2CO1`, the IC50 was 79.5 µM.

In the case of `O=C1NC(=S)N(c2ccc(F)cc2)C(=O)/C1=C\c1ccoc1`, the half-inhibitory concentration (IC50) was 18.8 µM.

In the case of `O=C1NN(c2ccc(Cl)cc2)C(=O)/C1=C\c1ccc(-c2cccc(C(=O)O)c2)o1`, the IC50 is 5.76 µM.

`O=c1cc(-c2ccc(O)c(O)c2)oc2cc(O)c(C3OC(CO)C(O)C(O)C3O)c(O)c12` (centres undefined): the IC50 was 12.7 µM.

`CCN1/C(=C(\O)c2ccccc2)C(=O)c2ccccc2S1(=O)=O`: the half-maximal inhibitory concentration (IC50) is 55 µM.

Regarding `Cc1cccc(NC(=O)CSc2nnc(-c3ccco3)c(-c3ccco3)n2)c1C`, the IC50 was 4.3 µM.

`COc1ccc(NS(=O)(=O)c2cccc(Cl)c2Cl)cc1S(=O)(=O)N1CCCCC1`: the IC50 was 76.1 µM.

Consider `COC(=O)\C(C(C)=O)=C(/C=C/C=C/C=C/N(C)C)N(C)C`, for which the IC50 was 2.76 µM.

Consider `CC1OC(CC(=O)O)CC2=C1C(=O)c1c(O)cccc1C2=O` (centres undefined), for which the IC50 was 4.16 µM.

For the compound `O=C(O)c1ccc(-n2cccc2/C=N\NC(=O)c2cc3cc(Br)ccc3o2)cc1`, the IC50 was 6.47 µM.

On to `CC(=O)N(C1=C(Cl)C(=O)c2ccccc2C1=O)c1ccc(C(=O)O)cc1`, for which the IC50 is 59.7 µM.

For the compound `O=c1cc(-c2ccc(O)cc2)oc2cc(O)c(C3OC(CO)C(O)C(O)C3O)c(O)c12` (centres undefined), the IC50 was 7.05 µM.

Consider `CCOC(=O)C1CCN(C(=O)Nc2ccc3nc(-c4ccco4)c(-c4ccco4)nc3c2)CC1`, for which the IC50 is under 0.432 µM.

Turning to `CCOC(=O)c1ccc(NS(=O)(=O)c2ccc3oc(=O)[nH]c3c2)cc1`, the IC50 was 88.2 µM.

On to `CC(=O)N1CCN(c2nc(-c3ccco3)c3c(c2C#N)CC(C)(C)SC3)CC1`, for which the half-maximal inhibitory concentration (IC50) is 25.3 µM.

`COc1nc(N(c2ccccc2)c2ccccc2)nc(-n2ccnc2)n1`: the IC50 is 26.3 µM.

Consider `Cc1ccc(/C=C/C(=O)Nc2ncc(C)s2)o1`, for which the IC50 was 7.07 µM.

Consider `CN1CCN(C2=C(Cl)C(=O)C(c3cnc(N4CCCCC4)s3)=C(Cl)C2=O)CC1`, for which the IC50 is 2.5 µM.

Regarding `O=C(O)c1cccc(CSc2nnc(COc3ccccc3)o2)c1`, the IC50 is 88.2 µM.

With `COC(=O)c1ccc(=O)c2nc3/c(=C/O)c(O)cc(=O)c3[nH]c12`, the IC50 is 0.35 µM.

Turning to `Oc1cccc(C=NCc2ccccc2)c1O`, the IC50 is 1.9 µM.

Turning to `COc1cccc(CNCCc2c[nH]c3ccccc23)c1OCc1ccccc1`, the IC50 was 56 µM.

On to `CCCCN1C(=O)/C(=C/C=C/c2ccco2)C(=O)NC1=S`, for which the half-maximal inhibitory concentration (IC50) is 4.61 µM.

In the case of `CC[n+]1c(/C=C2/C=C(C)CC(C)(C)C2)sc2ccc(OC)cc21`, the IC50 was 21.7 µM.

Turning to `N=C1C=CC(=C(c2ccc(N)cc2)c2ccc(N)cc2)C=C1`, the IC50 was 3.43 µM.

For the compound `N#Cc1ccccc1CN1C(=O)S/C(=C/c2cccn2-c2ccc(C(=O)O)cc2)C1=O`, the half-maximal inhibitory concentration (IC50) was 19.8 µM.

Consider `CCOC(=O)C1=C(N)n2c(s/c(=C\c3ccco3)c2=O)=C(C(=O)OC(C)C)C1c1ccco1` (centres undefined), for which the IC50 is 1.23 µM.

On to `CC(=O)C1=C(C)NC(C)=C(C(C)=O)C1c1cccs1`, for which the IC50 is 23.5 µM.

On to `CC(C)CC(=O)Nc1nnc(-c2ccco2)s1`, for which the IC50 was 68.1 µM.

In the case of `O=C(CC1C(=O)NCCN1Cc1ccc(F)cc1)NCCN1CCCc2ccccc21` (centres undefined), the concentration for half-maximal inhibition (IC50) was 97.4 µM.

For `CSc1nc(N2CCOCC2)c2c3c(sc2n1)CCC3`, the IC50 was 42.1 µM.

As for `CC1(C)CC2(CC(c3ccccc3F)c3ccc(O)c(O)c3O2)NC(=S)N1` (centres undefined), the IC50 was 13.7 µM.

For the compound `O=C(O)C1Nc2c(O)cccc2C2C=CCC12` (centres undefined), the half-maximal inhibitory concentration (IC50) is 0.25 µM.

Regarding `Cc1cccc(C)c1NC(=O)COC(=O)c1cc(-c2cccnc2)nc2ccccc12`, the IC50 was 41.4 µM.

Regarding `Cc1cccc(-n2c(N)cc(=O)nc2SCC(=O)NC2CCCCC2)c1`, the concentration for half-maximal inhibition (IC50) was 93.7 µM.

On to `COC(=O)C1=C(N)OC2=C(C(=O)CCC2)C1c1cccs1` (centres undefined), for which the IC50 is 44.8 µM.

`Cc1nc2ncccn2c1-c1csc(NCc2ccco2)n1`: the IC50 is 1.22 µM.

With `N#C/C=C\Oc1ccc(Cl)cc1N`, the IC50 was 50.3 µM.

As for `O=C1NC(=S)SC1=C1CCCC1`, the IC50 was 6.2 µM.
